Laboratory results as given in ChEMBL document CHEMBL6121060, “Discovery and Development of CFTR Modulators for the Treatment of Cystic Fibrosis” (J Med Chem, 2025).
≈ marks a conversion by molar mass, not a printed value.

Experiments:
[1] = biological target: T1, Cystic fibrosis transmembrane conductance regulator (Homo sapiens, UniProt P13569, F508DEL); assay: Activation of CFTR F508del mutant (unknown origin)
[2] = Solubility of compound at pH 6.8 incubated for 12 hrs by HPLC analysis; format: physicochemical; conditions: buffer
[3] = biological target: T1, Cystic fibrosis transmembrane conductance regulator; assay: Potentiation of CFTR F508del mutant (unknown origin)
[4] = Metabolic stability in rat liver microsomes assessed as intrinsic clearance; format: ADME, Microsome
[5] = AUC in rat at 3 mg/kg, po; conditions: in vivo
[6] = biological target: T2, Nuclear receptor subfamily 1 group I member 2 (Homo sapiens, UniProt O75469); assay: Activation of PXR (unknown origin) at 10 uM relative to rifampicin
T2 sequence (O75469 whole entry): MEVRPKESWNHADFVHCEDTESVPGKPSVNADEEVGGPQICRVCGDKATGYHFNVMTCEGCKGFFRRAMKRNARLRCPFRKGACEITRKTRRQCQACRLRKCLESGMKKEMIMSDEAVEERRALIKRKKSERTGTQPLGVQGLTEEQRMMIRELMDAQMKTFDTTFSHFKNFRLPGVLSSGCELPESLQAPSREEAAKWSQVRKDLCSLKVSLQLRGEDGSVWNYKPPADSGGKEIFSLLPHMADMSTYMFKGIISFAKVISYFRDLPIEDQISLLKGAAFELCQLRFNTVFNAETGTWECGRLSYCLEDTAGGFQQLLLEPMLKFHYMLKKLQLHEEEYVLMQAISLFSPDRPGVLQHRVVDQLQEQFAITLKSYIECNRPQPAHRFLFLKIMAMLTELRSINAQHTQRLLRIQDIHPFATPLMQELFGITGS

[7] = Apparent permeability across apical to basolateral side in MDCK cells; format: ADME, cell-based, Canis lupus familiaris; conditions: dog
[8] = biological target: T3, PXR (nuclear receptor subfamily 1 group I member 2) (Homo sapiens, UniProt O75469); assay: Activation of PXR (unknown origin) at 10 uM relative to control; conditions: read-out: Activity
T3 sequence (O75469 whole entry): T2 sequence (O75469 whole entry)

[9] = biological target: T1, Cystic fibrosis transmembrane conductance regulator; assay: Potentiation of CFTR F508del mutant (unknown origin) expressed in NIH3T3 cells; format: cell-based
[10] = Oral bioavailability in rat; format: ADME, organism-based; conditions: in vivo

T1 sequence (P13569 as listed by the source): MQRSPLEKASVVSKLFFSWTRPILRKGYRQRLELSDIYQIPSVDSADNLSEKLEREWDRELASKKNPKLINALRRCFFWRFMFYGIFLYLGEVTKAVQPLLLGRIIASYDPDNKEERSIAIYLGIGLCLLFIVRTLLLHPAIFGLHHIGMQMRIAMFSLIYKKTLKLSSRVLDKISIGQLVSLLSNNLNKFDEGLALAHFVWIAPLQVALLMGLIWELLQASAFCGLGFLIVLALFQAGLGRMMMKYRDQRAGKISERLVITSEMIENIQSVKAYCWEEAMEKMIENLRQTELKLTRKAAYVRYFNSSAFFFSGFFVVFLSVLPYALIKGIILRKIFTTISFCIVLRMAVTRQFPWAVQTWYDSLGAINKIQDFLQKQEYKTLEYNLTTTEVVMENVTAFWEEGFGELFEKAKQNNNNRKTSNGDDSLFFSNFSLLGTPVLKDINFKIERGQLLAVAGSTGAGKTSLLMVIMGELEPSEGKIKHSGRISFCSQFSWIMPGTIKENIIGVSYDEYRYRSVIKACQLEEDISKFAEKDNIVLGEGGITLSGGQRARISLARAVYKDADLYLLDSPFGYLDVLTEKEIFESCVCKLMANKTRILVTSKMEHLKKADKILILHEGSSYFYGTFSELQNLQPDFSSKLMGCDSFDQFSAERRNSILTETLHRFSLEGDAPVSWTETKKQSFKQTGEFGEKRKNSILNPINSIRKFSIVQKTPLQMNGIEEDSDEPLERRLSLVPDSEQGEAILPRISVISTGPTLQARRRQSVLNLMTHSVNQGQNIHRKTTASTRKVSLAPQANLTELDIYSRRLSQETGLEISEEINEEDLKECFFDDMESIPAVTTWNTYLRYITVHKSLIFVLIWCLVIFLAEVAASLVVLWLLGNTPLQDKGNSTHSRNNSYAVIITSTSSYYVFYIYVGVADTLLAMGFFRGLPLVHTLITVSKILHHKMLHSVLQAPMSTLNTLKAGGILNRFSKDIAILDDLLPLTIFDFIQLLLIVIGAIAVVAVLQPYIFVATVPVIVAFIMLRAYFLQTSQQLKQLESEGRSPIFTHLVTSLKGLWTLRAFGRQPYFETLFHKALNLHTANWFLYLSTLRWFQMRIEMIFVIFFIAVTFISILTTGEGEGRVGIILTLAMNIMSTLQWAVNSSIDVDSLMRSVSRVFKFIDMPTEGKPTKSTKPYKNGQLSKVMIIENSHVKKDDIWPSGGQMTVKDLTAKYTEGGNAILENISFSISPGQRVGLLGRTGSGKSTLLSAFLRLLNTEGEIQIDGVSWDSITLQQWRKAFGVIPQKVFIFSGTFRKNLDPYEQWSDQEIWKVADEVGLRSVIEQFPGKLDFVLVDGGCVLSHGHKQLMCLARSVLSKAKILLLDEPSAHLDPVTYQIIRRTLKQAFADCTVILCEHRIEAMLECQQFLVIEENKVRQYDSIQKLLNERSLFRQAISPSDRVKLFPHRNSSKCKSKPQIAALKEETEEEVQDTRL

Structure (SMILES) | EC50 [1] [µM] | further results
COC(=O)c1nc(-c2ccco2)c(C(F)(F)F)cc1N | – | solubility at 12 h [2]: 0.002 mg/mL (≈ 6.99 µM); EC50 [3]: 0.07 µM; CLint [4]: 351 µL/min/mg
CNC(=O)c1nc(Br)c(C(F)(F)F)cc1N | – | CLint [4]: 100 µL/min/mg
Nc1cc(C(F)(F)F)c(Br)nc1C(=O)NCCC(F)(F)F | – | solubility at 12 h [2]: 0.17 mg/mL (≈ 447 µM); CLint [4]: 55.8 µL/min/mg
C[C@@H]1CN(c2nc(-n3ccc(OCC4(C(F)(F)F)CCC4)n3)ccc2C(=O)NS(=O)(=O)c2ccccc2)C(C)(C)C1 | 0.04 | AUC [5]: 2.2 µg·h/mL
C[C@@H]1CN(c2nc(-n3ccc(OCC4(C(F)(F)F)CC4)n3)ccc2C(=O)NS(=O)(=O)c2ccccc2)C(C)(C)C1 | 0.04 | AUC [5]: 14.7 µg·h/mL; Activity [6]: 19%
C[C@@H]1CN(c2nc(-n3ccc(OCCC4(C(F)(F)F)CC4)n3)ccc2C(=O)NS(=O)(=O)c2cccc(F)c2)C(C)(C)C1 | 0.05 | AUC [5]: 2.7 µg·h/mL
C[C@@H]1CN(c2nc(-n3ccc(OCC(C)(C)C)n3)ccc2C(=O)NS(=O)(=O)c2cccnc2N)C(C)(C)C1 | 0.06 | AUC [5]: 1.2 µg·h/mL; Activity [6]: 2%
C[C@@H]1CN(c2nc(-n3ccc(OCC(O)C4(C(F)(F)F)CC4)n3)ccc2C(=O)NS(=O)(=O)c2ccccc2)C(C)(C)C1 (stereo partly drawn) | 0.24 | –
CCOc1cccc([C@H]2C[C@@]2(C(=O)NS(=O)(=O)c2cccc3nc(C)ccc23)c2cc(C)ccc2OC)n1 | 0.005 | –
CC(O)(c1nnc(-c2ncc(S(=O)(=O)c3ccc(OC(F)(F)F)cc3)cc2N)o1)C(F)(F)F (stereo not drawn) | 0.0018 | –
Cc1nn(C)c(C)c1S(=O)(=O)NC(=O)c1ccc(-n2ccc(OCC(C)(C)C(F)(F)F)n2)nc1N1C[C@@H](C)CC1(C)C | – | Papp A→B [7]: 88 nm/s; activity at 10 µM [8]: 1%; EC50 [9]: 0.09 µM
CCOc1ccc(CC)cc1[C@@]1(C(=O)NS(=O)(=O)c2cccc3nc(C)ccc23)CCCO1 | 0.03 | –
Cc1nn(C)cc1S(=O)(=O)NC(=O)c1ccc(-n2ccc(OCC3(C(F)(F)F)CC3)n2)nc1N1C[C@@H](C)CC1(C)C | – | Papp A→B [7]: 71 nm/s; activity at 10 µM [8]: 4%; EC50 [9]: 0.22 µM
COc1ccc(Br)c2c1C(C(=O)NS(=O)(=O)c1cccc3ccccc13)CC2 (stereo not drawn) | < 3 | –
CCc1ccccc1-c1nc(NS(=O)(=O)c2cccc(N(CC)CCCC(=O)O)n2)ccc1C(F)(F)F | 0.004 | –
Cc1ccc(-c2cccc(C(F)(F)F)c2)c(OC2(C(=O)NS(=O)(=O)c3cccc(N4CCC(N)(C(F)(F)F)CC4)n3)CC2)c1 | 0.08 | –
COc1ccc(C2CCC2)c2c1C(C(=O)NS(=O)(=O)c1cccc3ccccc13)C2 (stereo not drawn) | < 3 | –
CC(C)(CN1CCCCCc2ccccc2-c2nc(ccc2C(F)(F)F)NS(=O)(=O)c2cccc1n2)C(=O)O | 0.004 | –

Structure (SMILES) | EC50 [1] [µM] | further results
Nc1cc(S(=O)(=O)c2ccc(OC(F)(F)F)cc2)cnc1-c1nnc([C@@H](O)c2ccccc2)o1 | 0.0011 | –
CC(C)(CO)CN1CCCCCc2ccccc2-c2nc(ccc2C(F)(F)F)NS(=O)(=O)c2cccc1n2 | 0.003 | –
CNC(=O)c1nc(-c2ccco2)c(C(F)(F)F)cc1N | – | solubility at 12 h [2]: 0.04 mg/mL (≈ 140 µM); EC50 [3]: 1.86 µM; CLint [4]: 205 µL/min/mg
COC(=O)c1nc(I)c(C(F)(F)F)cc1N | – | solubility at 12 h [2]: 0.013 mg/mL (≈ 37.6 µM); EC50 [3]: 0.36 µM; CLint [4]: 342 µL/min/mg
Cc1nn(C)cc1S(=O)(=O)NC(=O)c1ccc(-n2ccc(OCC3(C(F)(F)F)CCC3)n2)nc1N1C[C@@H](C)CC1(C)C | – | bioavailability [10]: 66%; Papp A→B [7]: 27 nm/s; activity at 10 µM [8]: 3%; EC50 [9]: 0.13 µM
Cc1nn(C)cc1S(=O)(=O)NC(=O)c1ccc(-n2ccc(OCCC3(C(F)(F)F)CC3)n2)nc1N1C[C@@H](C)CC1(C)C | – | bioavailability [10]: 65%; Papp A→B [7]: 117 nm/s; activity at 10 µM [8]: 4%; EC50 [9]: 0.13 µM
CC(C)(CO)CN1CCCCCCc2ccccc2-c2nc(ccc2C(F)(F)F)NS(=O)(=O)c2cccc1n2 | 0.01 | –
CC(C)(CN1CCCCCCc2ccccc2-c2nc(ccc2C(F)(F)F)NS(=O)(=O)c2cccc1n2)C(=O)O | 0.08 | –
Cc1ccc(C2CCCCCC2)c(OC2(C(=O)NS(=O)(=O)c3cccc(N)n3)CC2)c1 | 0.002 | –
Nc1cc(S(=O)(=O)c2ccc(OC(F)(F)F)cc2)cnc1-c1nnc(C(O)C(F)(F)F)o1 (stereo not drawn) | 0.0058 | –
Cc1c(S(=O)(=O)NC(=O)c2ccc(-n3ccc(OCC(C)(C)C(F)(F)F)n3)nc2N2C[C@@H](C)CC2(C)C)cnn1C | – | Papp A→B [7]: 38 nm/s; activity at 10 µM [8]: 3%; EC50 [9]: 0.17 µM
CCOc1ccc(CC)cc1[C@]1(C(=O)NS(=O)(=O)c2cccc3nc(C)ccc23)CCCO1 | > 0.3 | –
COc1ccc(C)cc1[C@]1(C(=O)NS(=O)(=O)c2cccc3nc(C)ccc23)C[C@@H]1c1cnc(C(C)C)cn1 | 0.03 | –
COc1ncc(C2CCC2)cc1C1(C(=O)NS(=O)(=O)c2cccc3c2CCCN3)CC1 | < 3 | –
COc1ccc(C)cc1[C@]1(C(=O)NS(=O)(=O)c2cccc3nc(C)ccc23)C[C@@H]1c1cccc(C(F)(F)F)c1 (racemic) | 0.005 | –
C[C@@H]1CN(c2nc(-n3ccc(OCCC4(C(F)(F)F)CC4)n3)ccc2C(=O)NS(=O)(=O)c2ccccc2)C(C)(C)C1 [BAMOCAFTOR] | 0.03 | AUC [5]: 21 µg·h/mL; Activity [6]: 3%
Cc1nn(C)cc1S(=O)(=O)NC(=O)c1ccc(-n2ccc(OCC(C)(C)C(F)(F)F)n2)nc1N1C[C@@H](C)CC1(C)C [ELEXACAFTOR] | – | bioavailability [10]: 83%; Papp A→B [7]: 45 nm/s; activity at 10 µM [8]: 2%; EC50 [9]: 0.07 µM

Second part, led by results:

EC50 [1] [µM] | Structure (SMILES) | further results
0.015 | CC1(C)Cc2c(sc(NC(=O)c3ccccc3O)c2C(N)=O)C(C)(C)O1 | –
0.003 | CC1(C)Cc2c(sc(NC(=O)[C@H](O)C(C)(C)C)c2C(N)=O)C(C)(C)O1 | –
0.0027 | CC1(C)Cc2c(sc(NC(=O)C3(CO)CC3)c2C(N)=O)C(C)(C)O1 | –
0.127 | CC1(C)Cc2c(sc(NC(=O)[C@@H](O)C(C)(C)C)c2C(N)=O)C(C)(C)O1 | –
0.09 | CCOc1cccc([C@@H]2C[C@]2(C(=O)NS(=O)(=O)c2cccc3nc(C)ccc23)c2cc(C)ccc2OC)n1 | –
0.002 | CCc1ccccc1-c1nc(NS(=O)(=O)c2cccc(N(CCCC(=O)O)C(C)C)n2)ccc1C(F)(F)F | –
0.03 | COc1ccc(C)cc1[C@]1(C(=O)NS(=O)(=O)c2cccc3nc(C)ccc23)C[C@@H](c2ccccc2)CO1 | –
< 3 | COc1ccc(Br)c2c1CCCC2C(=O)NS(=O)(=O)c1cccc2ncccc12 (stereo not drawn) | –
0.004 | Cc1ccc(C2CCCCC2)c(OC2(C(=O)NS(=O)(=O)c3cccc(N4CCC(N)(C(F)(F)F)CC4)n3)CC2)c1 | –
0.08 | Cc1ccc(C2CCCCC2)c(OC2(C(=O)NS(=O)(=O)c3cccc(N4CCOC[C@@H]4C)n3)CC2)c1 | –
< 3 | COc1ccc(C2CCC2)cc1C1(C(=O)NS(=O)(=O)c2cccc3ccccc23)CC1 | –
< 3 | COc1ccc(Br)c2c1CCCC2C(=O)NS(=O)(=O)c1cccc2ccccc12 (stereo not drawn) | –
0.002 | Cc1ccc(F)cc1-c1nc(NS(=O)(=O)c2cccc(N3CCC[C@@](C)(CC(=O)O)C3)n2)ccc1C(F)(F)F | –
0.0016 | Nc1cc(S(=O)(=O)c2ccc(C(F)(F)F)cc2)cnc1-c1nnc(CO)o1 | –
1.26 | Cc1nn(-c2ccc(F)cc2)c2nc(C(=O)NS(C)(=O)=O)cc(-c3ccc(N4CCOCC4)cc3)c12 | –
0.1 | Cc1ccccc1-c1nc(NS(=O)(=O)c2cccc(N3CCC[C@H](CC(=O)O)C3)n2)ccc1C(F)(F)F | –
0.0056 | Nc1cc(S(=O)(=O)c2ccc(OC(F)(F)F)cc2)cnc1-c1nnc(CO)o1 [NAVOCAFTOR] | –
0.01 | COc1ccc(C)cc1[C@@]1(C(=O)NS(=O)(=O)c2cccc3nc(C)ccc23)C[C@H](c2ccccc2)CO1 [RISELCAFTOR] | –
